Where two headings read alike, the source gives them in different places.
System: DQ0602
Type: binding, human
Details: for % Read #1 / Read #1: replicate 1; for % Average: mean of two reads; for % Read #2 / Read #2: replicate 2; for Average: mean of the two raw reads; for Read #1 / Read #2: raw signal read
[1] = % of Bio-EBV binding, first assay (02/04/2016, 07/15/2016 or 08/11/2016, by peptide)
[2] = % of Bio-EBV binding, repeat assay (07/19/2016, 07/18/2016 or 08/12/2016, by peptide)
[3] = first assay (02/04/2016, 07/15/2016 or 08/11/2016, by peptide)
[4] = repeat assay (07/19/2016, 07/18/2016 or 08/12/2016, by peptide)

HDSDKGVTAACPH [HA143-155 146D, synthetic 13-mer hemagglutinin peptide containing mutated 146D]
Average (two assays): 86.9741% | % Read #1 (% of Bio-EBV binding (Bio-EBV average = 100), first assay (02/04/2016, 07/15/2016 or 08/11/2016, by peptide)): 75.8456% | % Average [1]: 83.2638% | % Average [2]: 90.6844% | % Read #1 [2]: 90.6154% | % Read #2 [1]: 90.682% | % Read #2 [2]: 90.7533% | Average [3]: 15669 | Average [4]: 15132.5 | Read #1 (first assay (02/04/2016, 07/15/2016 or 08/11/2016, by peptide), competition against Bio-EBV epitope): 14273 | Read #1 [4]: 15121 | Read #2 [3]: 17065 | Read #2 [4]: 15144

Source: paper PMC5722318, “Absence of anti-hypocretin receptor 2 autoantibodies in post pandemrix narcolepsy cases” (PLoS ONE, 2017)
